Measured values: patent US10106523B2, “Amide compound” (ASTELLAS PHARMA INC., priority 2014, dated 2018)

Experiments:
rat EP2 receptor = target: T1, rat EP2 receptor (Rattus norvegicus, UniProt Q62928); assay: Selectivity test: antagonistic action on rat EP2 receptor (cAMP amount, CHO-K1 cells); assay type: cell-based; conditions: PGE2 100 nmol/L, CHO-K1 cells stably expressing rat EP2; read-out: Concentration up to which no inhibitory action of 50% or more on the increase in intracellular cAMP amount due to PGE2 through the rat EP2 receptor
T1 construct: expressed in transfected cells
T1 sequence (Q62928 whole entry): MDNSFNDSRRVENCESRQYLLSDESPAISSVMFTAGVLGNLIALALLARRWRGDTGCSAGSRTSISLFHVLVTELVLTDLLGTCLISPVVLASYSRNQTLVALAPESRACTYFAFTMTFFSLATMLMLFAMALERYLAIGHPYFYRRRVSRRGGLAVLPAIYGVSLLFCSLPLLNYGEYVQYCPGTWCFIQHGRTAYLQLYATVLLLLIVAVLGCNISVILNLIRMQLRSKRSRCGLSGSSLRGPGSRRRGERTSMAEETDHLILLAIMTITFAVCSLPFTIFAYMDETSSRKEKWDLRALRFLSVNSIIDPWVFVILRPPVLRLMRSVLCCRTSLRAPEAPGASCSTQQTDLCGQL
Method: Test Example 9: Evaluation Test of Receptor Antagonistic Action on Rat EP1/EP2/EP3 Receptor (Selectivity Test)
The antagonistic action of Compound A on other subtypes ([…], EP2, and EP3) of the rat-derived PGE2 receptor was evaluated. For EP1 and EP3, the intracellular Ca^2+ amount was used as an indicator, and for EP2, the intracellular cAMP amount was used as an indicator, so as to investigate the action of the test compound.
Construction of Rat EP1, EP2, or EP3 Receptor Expressing Vector: A rat EP1 receptor gene (GenBank accession No.: D88751.1), a rat EP2 receptor gene (GenBank accession No.: NM_031088.1), or a rat EP3 receptor gene (GenBank accession No.: NM_012704.1) were inserted respectively into an expression vector pcDNA3.1-V5-His-TOPO (Invitrogen Inc.).
Construction of Cell Stably Expressing Rat EP1, EP2, or EP3 Receptor: […]
The amount of cAMP contained in the cell lysate was measured with a cAMP HiRange kit in the same manner as in Test Example 4. The ratio of the cAMP amount when the test compound was treated was calculated, by taking the cAMP amount with addition of PGE2 having a final concentration of 100 nmol/L as 100% and taking the cAMP amount without addition of PGE2 as 0%.

rat EP4 receptor = rat EP4 receptor (Rattus norvegicus, UniProt P43114); assay: In vivo rat EP4 receptor antagonistic action (plasma TNF-α after LPS and EP4 agonist ONO-AE1-437); set-up: from tissue; host or cells: whole animal (SD rat); conditions: SD rats, 0.03 mg/kg po, ONO-AE1-437 0.01 mg/kg sc, LPS 0.01 mg/kg iv
rat EP4 receptor, sequence (P43114 whole entry): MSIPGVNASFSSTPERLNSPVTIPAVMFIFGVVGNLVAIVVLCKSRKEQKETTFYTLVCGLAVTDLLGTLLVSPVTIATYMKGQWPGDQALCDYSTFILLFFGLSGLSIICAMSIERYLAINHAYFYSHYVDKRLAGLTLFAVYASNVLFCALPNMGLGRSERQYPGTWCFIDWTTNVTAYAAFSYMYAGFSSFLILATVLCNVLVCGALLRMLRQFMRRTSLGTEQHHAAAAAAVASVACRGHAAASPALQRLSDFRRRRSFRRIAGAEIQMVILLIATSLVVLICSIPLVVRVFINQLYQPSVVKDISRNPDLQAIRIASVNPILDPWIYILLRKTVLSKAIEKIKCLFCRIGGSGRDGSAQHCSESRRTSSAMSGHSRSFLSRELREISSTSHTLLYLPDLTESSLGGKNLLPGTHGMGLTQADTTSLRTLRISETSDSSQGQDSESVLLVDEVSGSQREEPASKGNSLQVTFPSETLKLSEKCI
Method: Test Example 5: Evaluation Test of In Vivo Rat EP4 Receptor Antagonistic Action
SD rats (male, 6-week old) under non-fasting conditions were used for the test. A test compound dissolved in a mixed solution of PEG 400: 20% Tween 80: 1 mol/L aqueous NaHCO3 solution=1:4:5 was orally administered (po) to the rat at a dose of 0.03 mg/kg (5 mL/kg). After 1 hour, an active metabolite (ONO-AE1-437 (CAS No. 256382-23-7)) of an EP4 agonist ONO-4819 dissolved in physiological saline was subcutaneously administered (sc) to the back of the rat at a dose of 0.01 mg/kg (5 mL/kg). After 30 minutes, Lipopolysaccharide (LPS, 0.01 mg/kg) was administered to the tail vein (2 mL/kg), and after 60 minutes, about 0.5 mL of blood was collected in a heparin-containing tube under anesthesia. The blood sample was centrifuged (1000×g, 10 minutes, 4° C.) to separate the plasma. The TNF-α concentration in the rat plasma was measured by an ELISA kit (DuoSet ELISA, R&D Systems). An inhibitory rate of the test compound group (n=5) with respect to the TNF-α production inhibitory action by the EP4 agonist was calculated by taking the TNF-α concentration of the group (n=5) not treated with ONO-AE1-437 as 100% and taking the TNF-α concentration of the group (n=5) treated with ONO-AE1-437 as 0%.

IC50 (rat EP2 receptor): > 10 µM
Inhibition of the TNF-α production inhibitory action of the EP4 agonist ONO-AE1-437 (rat EP4 receptor): 38%
SMILES: Cc1nn(Cc2cc3ccccc3cn2)c(C(=O)N[C@@H](C)c2ccc(C(=O)O)cc2)c1Br [Compound A, 4-[(1S)-1-({[4-bromo-1-(isoquinolin-3-ylmethyl)-3-methyl-1H-pyrazol-5-yl]carbonyl}amino)ethyl]benzoic acid]
